# From patent US6392045B1, “9-azobicyclo[3.3.1] non-2-ene derivatives as cholinergic ligands at nicotinic ACH receptors” (NeuroSearch A/S, priority 1997, dated 2002)
# Like-named read-outs stand apart in the source and are kept apart here.
# Key:
# [1] = approximate potency, times that of morphine; cited from earlier work
# [2] = molecular target: nAChRs comprised of α4 and β2 subunits (Rattus norvegicus, UniProt P09483+P12390); assay: In vitro inhibition of 3H-cytisine binding
# Description: In Vitro Inhibition of ^3H-cytisine Binding
# The predominant subtype with high affinity for nicotine is comprised of α4 and β2 subunits. nAChRs of the latter type can selectively be labelled by the nicotine agonist ^3H-cytisine.
# Tissue Preparation: Preparations are performed at 0-4° C. unless otherwise indicated. […] The homogenate is centrifuged at 27,000×g for 10 min. The supernatant is discarded and the pellet is resuspended in fresh buffer and centrifuged a second time. The final pellet is resuspended in fresh buffer (35 ml per g of original tissue) and used for binding assays.
# Assay: Aliquots of 500 μl homogenate are added to 25 μl of test solution and 25 μl of ^3H-cytisine (1 nM, final concentration), mixed and incubated for 90 min at 2° C. Non-specific binding is determined using (−)-nicotine (100 μM, final concentration). After incubation the samples are added 5 ml of ice-cold buffer and poured directly onto Whatman GF/C glass fibre filters under suction and immediately washed with 2×5 ml ice-cold buffer. The amount of radioactivity on the filters is determined by conventional liquid scintillation counting. Specific binding is total binding minus non-specific binding.
# [3] = molecular target: T1, α4β2 subtype of nicotinic receptors (neuronal nicotinic receptors) (Rattus norvegicus, UniProt P09483+P12390); assay: In vitro inhibition of 3H-epibatidin binding
# T1 construct: The forebrain (÷cerebellum) from a male Wistar rat (150-250 g) is homogenized; from tissue; host or cells: rat forebrain (without cerebellum) homogenate (male Wistar)
# Description: In Vitro Inhibition of ^3H-epibatidin Binding
# The high affinity binding site for ^3H-epibatidin is most certainly binding to the α4β2 subtype of nicotinic receptors. The identity of the low affinity site is still unknown; does it represent a second nicotinic receptor or a second site in the same receptor.
# Tissue preparation: Preparations are performed at 0-4° C. unless otherwise indicated. The forebrain (÷cerebellum) from a male Wistar rat (150-250 g) is homogenized for 10-20 sec in 20 ml Tris, HCl (50 mM, pH 7.4) using an Ultra-Turrax homogenizer. The tissue suspension is centrifuged at 27,000×g for 10 min. The supernatant is discarded and the pellet is washed three times by centrifugation at 27,000×g for 10 min in 20 ml fresh buffer, and the final pellet is resuspended in fresh buffer (400 ml per g of original tissue) and used for binding assays.
# Assay: Aliquots of 2.0 ml homogenate are added to 0.100 ml of test solution and 0.100 ml of ^3H-epibatidin (0.3 nM, final concentration), mixed and incubated for 60 min at room temperature. Non-specific binding is determined using (−)-nicotine (30 μM, final concentration). After incubation the samples are poured directly onto Whatman GF/C glass fibre filters (presoaked in 0.1% PEI for at least 20 min) under suction and immediately washed with 2×5 ml ice-cold buffer. The amount of radioactivity on the filters is determined by conventional liquid scintillation counting. Specific binding is total binding minus non-specific binding.
# [4] = molecular target: nAChR formed by the α7 subunit isoform (Rattus norvegicus, UniProt Q05941); assay: biochemical; format: binding
# [5] = read-out: 3H-α-bungarotoxin IC50
# nAChR formed by the α7 subunit isoform, sequence (Q05941 23-502): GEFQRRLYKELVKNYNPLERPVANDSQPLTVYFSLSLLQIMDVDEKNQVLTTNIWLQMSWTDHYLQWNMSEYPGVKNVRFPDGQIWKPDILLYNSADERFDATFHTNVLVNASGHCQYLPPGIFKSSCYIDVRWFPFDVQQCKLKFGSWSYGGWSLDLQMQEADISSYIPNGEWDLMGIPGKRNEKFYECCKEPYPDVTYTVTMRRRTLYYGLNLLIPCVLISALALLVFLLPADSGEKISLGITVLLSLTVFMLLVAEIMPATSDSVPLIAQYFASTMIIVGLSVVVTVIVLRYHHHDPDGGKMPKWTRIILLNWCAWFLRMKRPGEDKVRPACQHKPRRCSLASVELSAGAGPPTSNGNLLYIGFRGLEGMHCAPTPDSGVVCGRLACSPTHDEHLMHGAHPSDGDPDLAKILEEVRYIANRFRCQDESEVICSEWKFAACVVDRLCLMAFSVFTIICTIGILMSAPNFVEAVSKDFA
# nAChRs comprised of α4 and β2 subunits, sequence (P09483 31-630): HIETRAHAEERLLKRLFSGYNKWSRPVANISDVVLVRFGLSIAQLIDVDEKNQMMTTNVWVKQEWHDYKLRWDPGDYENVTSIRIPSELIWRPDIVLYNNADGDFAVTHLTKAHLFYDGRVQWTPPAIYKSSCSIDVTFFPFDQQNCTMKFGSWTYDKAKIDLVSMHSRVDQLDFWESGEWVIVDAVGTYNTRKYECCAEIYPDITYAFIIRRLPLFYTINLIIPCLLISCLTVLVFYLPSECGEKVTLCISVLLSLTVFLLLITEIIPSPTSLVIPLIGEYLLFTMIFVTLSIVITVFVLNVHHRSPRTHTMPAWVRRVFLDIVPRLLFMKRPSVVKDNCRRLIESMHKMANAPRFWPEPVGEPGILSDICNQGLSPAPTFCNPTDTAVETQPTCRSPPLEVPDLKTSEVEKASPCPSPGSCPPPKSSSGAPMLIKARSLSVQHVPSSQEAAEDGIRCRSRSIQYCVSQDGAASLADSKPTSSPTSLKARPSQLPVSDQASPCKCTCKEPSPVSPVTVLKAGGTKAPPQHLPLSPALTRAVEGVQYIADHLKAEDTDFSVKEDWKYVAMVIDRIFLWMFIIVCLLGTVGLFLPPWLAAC
# nAChRs comprised of α4 and β2 subunits, sequence (P12390 25-500): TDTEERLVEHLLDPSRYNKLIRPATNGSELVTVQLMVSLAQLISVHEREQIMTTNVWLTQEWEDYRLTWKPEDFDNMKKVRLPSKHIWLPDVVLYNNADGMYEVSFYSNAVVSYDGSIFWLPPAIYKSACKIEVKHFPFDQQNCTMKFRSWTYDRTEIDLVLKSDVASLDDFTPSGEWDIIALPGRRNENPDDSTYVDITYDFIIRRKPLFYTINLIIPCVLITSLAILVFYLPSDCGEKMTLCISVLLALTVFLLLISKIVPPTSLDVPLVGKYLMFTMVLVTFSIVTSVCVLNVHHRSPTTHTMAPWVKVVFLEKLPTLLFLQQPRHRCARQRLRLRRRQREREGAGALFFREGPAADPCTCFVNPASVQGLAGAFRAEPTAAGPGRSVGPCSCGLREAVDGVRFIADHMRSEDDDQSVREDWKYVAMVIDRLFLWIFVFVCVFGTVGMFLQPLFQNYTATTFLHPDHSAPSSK
# T1 sequence (P09483 31-630): as the sequence (P09483 31-630) above
# T1 sequence (P12390 25-500): as the sequence (P12390 25-500) above
SMILES,analgesic potency relative to morphine [1],IC50 [2],IC50 [3],"IC50 [4, 5]",melting point,"IC50 ([2]; rat cerebral cortex homogenate, 1 nM 3H-cytisine, 90 min at 2° C., read-out: 3H-cytisine IC50)","IC50 ([3]; rat forebrain homogenate, 0.3 nM 3H-epibatidin, 60 min at room temperature, read-out: 3H-epibatidin IC50)",IC50 [4]
Clc1ccc(C2CC3CCC2N3)cn1 (stereo not shown) [Epibatidine],~500 times,–,–,–,–,–,–,–
"CN1C2C=C(c3cncc(-c4ccc(Oc5ccccc5)cc4)c3)CC1CCC2.O=C(O)/C=C/C(=O)O (racemic) [Compound 4b, (±)-3-[5-(4-Phenoxyphenyl)-3-pyridyl]-9-methyl-9-azabicyclo[3.3.1]non-2-ene Fumaric Acid Salt]",–,350 nM,690 nM,17000 nM,166 to 168 °C,–,–,–
"CC(=O)C1=CC2CCCC(C1)N2C.O=C(O)/C=C/C(=O)O (racemic) [Compound 2d, (±)-3-Acetyl-9-methyl-9-azabicyclo[3.3.1]non-2-ene Fumaric Acid Salt]",–,590 nM,1100 nM,4200 nM,149 to 151 °C,–,–,–
"CN1C2C=C(c3cccc(N)c3)CC1CCC2.O=C(O)/C=C/C(=O)O (racemic) [Compound 1c, (±)-3-(3-Aminophenyl)-9-methyl-9-azabicyclo[3.3.1]non-2-ene Fumaric Acid Salt]",–,–,–,–,174 to 180 °C,40 nM,180 nM,220 nM
